Measurements as given in the NIST ThermoML archive (doi:10.1021/je800012v).

Test: xn = mol fraction of the nth substance listed
Details: Liquid

CCCCCl [1-chlorobutane] + CCCCCC
mass density [kg/m3]
Details | x1 = 0.1099 | x1 = 0.212 | x1 = 0.2925 | x1 = 0.316 | x1 = 0.405 | x1 = 0.4978 | x1 = 0.5975 | x1 = 0.6869 | x1 = 0.8294 | x1 = 0.9025
283.15 K, 100 kPa | 688.16 | 707.78 | 724.14 | 728.91 | 747.8 | 768.4 | 791.4 | 813.19 | 849.71 | 869.66
283.15 K, 2500 kPa | 690.51 | 710.17 | 726.49 | 731.23 | 750.19 | 770.77 | 793.76 | 815.54 | 852.04 | 871.97
283.15 K, 5000 kPa | 692.85 | 712.52 | 728.83 | 733.62 | 752.56 | 773.13 | 796.11 | 817.89 | 854.38 | 874.31
283.15 K, 10000 kPa | 697.27 | 716.94 | 733.31 | 738.08 | 757.05 | 777.64 | 800.62 | 822.39 | 858.86 | 878.8
283.15 K, 15000 kPa | 701.44 | 721.17 | 737.55 | 742.33 | 761.32 | 781.91 | 804.89 | 826.69 | 863.18 | 883.07
283.15 K, 20000 kPa | 705.42 | 725.18 | 741.57 | 746.36 | 765.38 | 785.99 | 808.98 | 830.8 | 867.28 | 887.19
283.15 K, 25000 kPa | 709.18 | 728.95 | 745.4 | 750.17 | 769.24 | 789.87 | 812.89 | 834.7 | 871.21 | 891.13
283.15 K, 30000 kPa | 712.77 | 732.59 | 749.06 | 753.86 | 772.94 | 793.59 | 816.62 | 838.47 | 875.01 | 894.92
283.15 K, 35000 kPa | 716.2 | 736.03 | 752.55 | 757.33 | 776.47 | 797.15 | 820.23 | 842.08 | 878.63 | 898.57
293.15 K, 100 kPa | 679 | 698.47 | 714.61 | 719.31 | 738.08 | 758.47 | 781.32 | 802.85 | 839.13 | 858.87
293.15 K, 2500 kPa | 681.5 | 701.01 | 717.13 | 721.84 | 740.6 | 761 | 783.84 | 805.38 | 841.63 | 861.35
293.15 K, 5000 kPa | 684.03 | 703.52 | 719.69 | 724.38 | 743.13 | 763.54 | 786.39 | 807.91 | 844.15 | 863.85
293.15 K, 10000 kPa | 688.77 | 708.3 | 724.48 | 729.18 | 747.97 | 768.33 | 791.18 | 812.71 | 848.93 | 868.63
293.15 K, 15000 kPa | 693.23 | 712.77 | 728.99 | 733.71 | 752.5 | 772.88 | 795.72 | 817.27 | 853.49 | 873.18
293.15 K, 20000 kPa | 697.41 | 717.01 | 733.23 | 737.99 | 756.78 | 777.19 | 800.04 | 821.6 | 857.83 | 877.51
293.15 K, 25000 kPa | 701.41 | 721.03 | 737.29 | 742.03 | 760.9 | 781.3 | 804.2 | 825.76 | 861.98 | 881.68
293.15 K, 30000 kPa | 705.17 | 724.84 | 741.13 | 745.88 | 764.76 | 785.2 | 808.12 | 829.7 | 865.95 | 885.66
293.15 K, 35000 kPa | 708.81 | 728.53 | 744.84 | 749.61 | 768.53 | 788.98 | 811.92 | 833.53 | 869.81 | 889.53
298.15 K, 100 kPa | 674.32 | 693.72 | 709.76 | 714.52 | 733.09 | 753.4 | 776.16 | 797.59 | 833.73 | 853.37
298.15 K, 2500 kPa | 676.93 | 696.34 | 712.38 | 717.11 | 735.72 | 756.03 | 778.78 | 800.23 | 836.3 | 855.94
298.15 K, 5000 kPa | 679.56 | 698.96 | 715.02 | 719.75 | 738.37 | 758.67 | 781.41 | 802.86 | 838.91 | 858.53
298.15 K, 10000 kPa | 684.48 | 703.92 | 719.98 | 724.72 | 743.38 | 763.66 | 786.38 | 807.84 | 843.87 | 863.49
298.15 K, 15000 kPa | 689.11 | 708.6 | 724.66 | 729.39 | 748.1 | 768.37 | 791.12 | 812.57 | 848.59 | 868.18
298.15 K, 20000 kPa | 693.45 | 712.95 | 729.06 | 733.8 | 752.52 | 772.82 | 795.57 | 817.04 | 853.07 | 872.66
298.15 K, 25000 kPa | 697.55 | 717.1 | 733.24 | 737.94 | 756.74 | 777.05 | 799.82 | 821.3 | 857.35 | 876.94
298.15 K, 30000 kPa | 701.45 | 721.06 | 737.22 | 741.91 | 760.75 | 781.09 | 803.9 | 825.39 | 861.46 | 881.06
298.15 K, 35000 kPa | 705.16 | 724.8 | 741 | 745.72 | 764.57 | 784.94 | 807.76 | 829.27 | 865.37 | 884.99
303.15 K, 100 kPa | 669.66 | 689.16 | 704.96 | 709.76 | 728.25 | 748.32 | 770.96 | 792.32 | 828.52 | 847.81
303.15 K, 2500 kPa | 672.37 | 691.9 | 707.69 | 712.51 | 730.98 | 751.02 | 773.66 | 795.01 | 831.2 | 850.48
303.15 K, 5000 kPa | 675.06 | 694.62 | 710.41 | 715.21 | 733.71 | 753.76 | 776.4 | 797.74 | 833.88 | 853.16
303.15 K, 10000 kPa | 680.26 | 699.79 | 715.6 | 720.44 | 738.89 | 759.01 | 781.67 | 802.98 | 839.08 | 858.38
303.15 K, 15000 kPa | 685.01 | 704.53 | 720.39 | 725.23 | 743.69 | – | – | – | – | –
